Measured values taken from PubChem BioAssay (NCI).
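These data come from cells grown in 96-well plates and exposed to compound for 48 hours at five concentrations. Definition used: TGI = concentration required for complete inhibition of growth.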 *1 amine or outer side, *2 acyl side, *3 side chain or, on linkers, in order; H or OH if unused. Where a SMILES comes first, the peptide text is derived from it. [ ]: non-standard residue; d: D form. The star is where a group is joined. X31 = CC(=O)N(C)SCC(N[*:1])C(=O)[*:2]; Fmoc = O=C(OCC1c2ccccc2-c2ccccc21)*; Cbz = O=C(OCc1ccccc1)*; Boc = CC(C)(C)OC(=O)*; Bn = c1ccc(C*)cc1

How the values were obtained:
Experiment in all cases: growth of human tumour cells (NCI), 48 h
786-0 renal = test system: 786-0 renal
A498 renal = test system: A498 renal
A549 NSCLC = test system: A549 NSCLC
ACHN renal = test system: ACHN renal
BT-549 breast = test system: BT-549 breast
CAKI-1 renal = test system: CAKI-1 renal
CCRF-CEM leukemia = test system: CCRF-CEM leukemia
COLO 205 colon = test system: COLO 205 colon
DU-145 prostate = test system: DU-145 prostate
EKVX NSCLC = test system: EKVX NSCLC
HCT-116 colon = test system: HCT-116 colon
HCT-15 colon = test system: HCT-15 colon
HL-60(TB) leukemia = test system: HL-60(TB) leukemia
HOP-62 NSCLC = test system: HOP-62 NSCLC
HOP-92 NSCLC = test system: HOP-92 NSCLC
HS 578T breast = test system: HS 578T breast
HT29 colon = test system: HT29 colon
IGROV1 ovarian = test system: IGROV1 ovarian
K-562 leukemia = test system: K-562 leukemia
KM12 colon = test system: KM12 colon
LOX IMVI melanoma = test system: LOX IMVI melanoma
M14 melanoma = test system: M14 melanoma
MALME-3M melanoma = test system: MALME-3M melanoma
MCF7 breast = test system: MCF7 breast
MDA-MB-231 breast = test system: MDA-MB-231 breast
MDA-MB-435 = test system: MDA-MB-435
MDA-N = test system: MDA-N
MOLT-4 leukemia = test system: MOLT-4 leukemia
NCI-H226 lung = test system: NCI-H226 lung
NCI-H23 lung = test system: NCI-H23 lung
NCI-H522 lung = test system: NCI-H522 lung
NCI/ADR-RES ovarian = test system: NCI/ADR-RES ovarian
OVCAR-3 ovarian = test system: OVCAR-3 ovarian
OVCAR-4 ovarian = test system: OVCAR-4 ovarian
OVCAR-5 ovarian = test system: OVCAR-5 ovarian
OVCAR-8 ovarian = test system: OVCAR-8 ovarian
PC-3 prostate = test system: PC-3 prostate
RPMI-8226 leukemia = test system: RPMI-8226 leukemia
RXF 393 renal = test system: RXF 393 renal
SF-268 CNS = test system: SF-268 CNS
SF-295 CNS = test system: SF-295 CNS
SK-MEL-2 melanoma = test system: SK-MEL-2 melanoma
SK-MEL-28 melanoma = test system: SK-MEL-28 melanoma
SK-MEL-5 melanoma = test system: SK-MEL-5 melanoma
SK-OV-3 ovarian = test system: SK-OV-3 ovarian
SN12C renal = test system: SN12C renal
SNB-19 CNS = test system: SNB-19 CNS
SNB-75 CNS = test system: SNB-75 CNS
SR leukemia = test system: SR leukemia
SW-620 colon = test system: SW-620 colon
T-47D breast = test system: T-47D breast
TK-10 renal = test system: TK-10 renal
U251 CNS = test system: U251 CNS
UACC-257 melanoma = test system: UACC-257 melanoma
UACC-62 melanoma = test system: UACC-62 melanoma
UO-31 renal = test system: UO-31 renal
HCC-2998 colon = test system: HCC-2998 colon
NCI-H460 lung = test system: NCI-H460 lung
SF-539 CNS = test system: SF-539 CNS

Measured: TGI

O=C1c2cc([N+](=O)[O-])ccc2-c2ccc3c4ccc5c6c(ccc(c7ccc1c2c73)c64)C(=O)c1cc([N+](=O)[O-])ccc1-5
> 100 µM: 786-0 renal | A498 renal | A549 NSCLC | ACHN renal | BT-549 breast | CAKI-1 renal | CCRF-CEM leukemia | COLO 205 colon | DU-145 prostate | EKVX NSCLC | HCT-116 colon | HCT-15 colon | HL-60(TB) leukemia | HOP-62 NSCLC | HOP-92 NSCLC | HS 578T breast | HT29 colon | IGROV1 ovarian | K-562 leukemia | KM12 colon | LOX IMVI melanoma | M14 melanoma | MALME-3M melanoma | MCF7 breast | MDA-MB-231 breast | MDA-MB-435 | MDA-N | MOLT-4 leukemia | NCI-H226 lung | NCI-H23 lung | NCI-H522 lung | NCI/ADR-RES ovarian | OVCAR-3 ovarian | OVCAR-4 ovarian | OVCAR-5 ovarian | OVCAR-8 ovarian | PC-3 prostate | RPMI-8226 leukemia | RXF 393 renal | SF-268 CNS | SF-295 CNS | SK-MEL-2 melanoma | SK-MEL-28 melanoma | SK-MEL-5 melanoma | SK-OV-3 ovarian | SN12C renal | SNB-19 CNS | SNB-75 CNS | SR leukemia | SW-620 colon | T-47D breast | TK-10 renal | U251 CNS | UACC-257 melanoma | UACC-62 melanoma | UO-31 renal

CC(C)(C)OC(=O)NCCCCC(NC(=O)C(Cc1c[nH]c2ccccc12)NC(=O)OCC1c2ccccc2-c2ccccc21)C(=O)N1CCCC1C(=O)NCC(N)=O (stereo not given) (Fmoc-WK(Boc)PG-NH2; configuration not given here)
> 100 µM: 786-0 renal | A549 NSCLC | ACHN renal | BT-549 breast | CAKI-1 renal | CCRF-CEM leukemia | COLO 205 colon | DU-145 prostate | EKVX NSCLC | HCC-2998 colon | HCT-116 colon | HCT-15 colon | HL-60(TB) leukemia | HOP-62 NSCLC | HOP-92 NSCLC | HS 578T breast | HT29 colon | IGROV1 ovarian | K-562 leukemia | KM12 colon | LOX IMVI melanoma | M14 melanoma | MALME-3M melanoma | MCF7 breast | MDA-MB-231 breast | MDA-MB-435 | MDA-N | MOLT-4 leukemia | NCI-H226 lung | NCI-H23 lung | NCI-H460 lung | NCI-H522 lung | NCI/ADR-RES ovarian | OVCAR-3 ovarian | OVCAR-4 ovarian | OVCAR-5 ovarian | OVCAR-8 ovarian | PC-3 prostate | RPMI-8226 leukemia | RXF 393 renal | SF-268 CNS | SF-295 CNS | SF-539 CNS | SK-MEL-2 melanoma | SK-MEL-28 melanoma | SK-MEL-5 melanoma | SK-OV-3 ovarian | SN12C renal | SNB-19 CNS | SNB-75 CNS | SR leukemia | SW-620 colon | T-47D breast | TK-10 renal | U251 CNS | UACC-257 melanoma | UACC-62 melanoma | UO-31 renal

CC(=O)N(C)SCC(NC(=O)C(Cc1ccccc1)NC(=O)OCc1ccccc1)C(=O)NC(Cc1ccccc1)C(=O)NC(Cc1c[nH]c2ccccc12)C(=O)NC(CCCCNC(=O)OCc1ccccc1)C(=O)NC(C(=O)NC(CSN(C)C(C)=O)C(=O)NC(C(N)=O)C(C)OCc1ccccc1)C(C)OCc1ccccc1 (stereo not given) (Cbz-F[X31]FWK(Cbz)T(Bn)[X31]T(Bn)-NH2; configuration not given here)
> 100 µM: 786-0 renal | A549 NSCLC | ACHN renal | BT-549 breast | CCRF-CEM leukemia | COLO 205 colon | DU-145 prostate | EKVX NSCLC | HCC-2998 colon | HCT-116 colon | HCT-15 colon | HL-60(TB) leukemia | HOP-62 NSCLC | HOP-92 NSCLC | HS 578T breast | HT29 colon | IGROV1 ovarian | K-562 leukemia | KM12 colon | LOX IMVI melanoma | M14 melanoma | MALME-3M melanoma | MCF7 breast | MDA-MB-231 breast | MDA-MB-435 | MDA-N | MOLT-4 leukemia | NCI-H226 lung | NCI-H23 lung | NCI-H460 lung | NCI/ADR-RES ovarian | OVCAR-3 ovarian | OVCAR-4 ovarian | OVCAR-5 ovarian | OVCAR-8 ovarian | PC-3 prostate | RPMI-8226 leukemia | RXF 393 renal | SF-268 CNS | SF-295 CNS | SF-539 CNS | SK-MEL-2 melanoma | SK-MEL-28 melanoma | SK-MEL-5 melanoma | SK-OV-3 ovarian | SN12C renal | SNB-19 CNS | SNB-75 CNS | SR leukemia | SW-620 colon | T-47D breast | TK-10 renal | U251 CNS | UACC-257 melanoma | UACC-62 melanoma | UO-31 renal
